“Also recorded” adds a separate entry of the source.
Experiments:
C6 cells = experiment: Anti-GBM activity in vitro on cultures of C6 cells (cell counting, protein assay, MTT test); assay type: cell-based, rat; conditions: 15 μm, ethanol 3%
Method: Plastic flat-bottomed 96-well culture plates (NUNC, USA) treated for cell culture (Sigma-Aldrich, ref. 114754) are used; 1500 cells are seeded per well in 200 μl of culture medium. At the time of treatment, 100 μl of pure culture medium, 100 μl of culture medium containing ethanol, or liposomes, or 100 μl of culture medium containing the active ingredients are added per well; the final volume of the culture medium, after treatment, is therefore 300 μl for all the wells.
The cultures are incubated in a Sanyo incubator (Japan, model MCO-19AlC-UV) at 37° C. and in an atmosphere with 5% CO2 and saturated in humidity. The cells are observed with an inverted microscope (Nikon Eclipse TS100, Japan) and the photographs are taken with a camera (DIGITAL camera with c-mount; LABOVER, France). The culture hood is a microbiological safety hood MSC (thermo SCIENTIFIC, model HERA SAFE KS12, France).
The type C6 cell line was obtained by Benda et al. (16) from rat brain tumours, induced by N-methylnitrosourea. This cell type is used as “in vitro” and “in vivo” model for evaluating anti-GBM potential. The lines originate from the former Strasbourg Neurochemistry Centre (U44 INSERM and UPR 416 CNRS).
The culture medium is made up of 70% Minimum Essential Medium (MEM; (Fischer Scientifique, ref. 61100) and 30% Hanks solution (SIGMA, ref. H 9269). The following are added to the culture medium: foetal calf serum (FCS; Fischer Scientifique, ref. 10108165) at a final concentration of 5% (v/v), an antibiotic solution of ciprofloxacin hydrochloride 5 μg/mL (EUROMEDEX, ref. UC5074) and a solution of Fungizone 2.5 μg/mL (INVITROGEN, ref. 15290-026). The doubling time of this cell type is 17 h. • GBM lines of human origin
The active ingredients are either dissolved in absolute ethanol (AnalaR, NORMAPUR, VWR, France) or in the form of a liposomal solution, such as 10 μl of the stock solutions diluted in 990 μl and then added to the culture wells (200 μl of culture medium) giving concentrations of 30.0, 15.0, 7.5 and 3.3 μM (final volume of culture medium per well BI-GBM: 300 μl).
When the active ingredients are in ethanolic solution, the culture medium contains […] ethanol (v/v).
A method of cell counting on photographs was used.
For example, in the case of the cultures in 96-well plates and as a function of the magnification of the microscope used (objectives×10 or ×20, oculars×10), a photograph taken represents a field of view with a diameter equal to 1/5 of the diameter of a well. Therefore the total number of cells in a well is equal to […] the number of cells per photograph. This technique was compared with a standard technique (trypsinization of the cell layer, centrifugation of the cells, suspension of the cells in physiological saline solution and counting with a THOMA cell) in the case of the C6 cells. The results obtained are identical for both methods.
The culture medium is withdrawn from each well and 50 μl of Laemmli buffer (0.1 ml of Tris, 0.8 ml of glycerol, 1.6 mL of 10% SDS, 8 ml q.s.f ultrapure water) is added per well.
In control wells, 10 μl of a solution of bovine serum albumin range (crystallized BSA, Sigma) is added; the range is from 0 to 20 μg per well. The wells are then supplemented with 40 μl of Laemmli buffer. Finally, 200 μl of solution of BCA reagent is added (Pierce, USA; BCA Protein Assay Kit; ThemoScientific, France).
The culture plates are incubated for 30 min at 37° C. The optical density for each well is read and quantified by a plate reader (BioRad, USA, iMark Microplate reader 12222) at 570 nm.
This test makes it possible to detect the cellular respiration, especially the mitochondrial respiration. The stock solution of tetrazolium salt MTT (3-(4,5-dimethylthiazol-2-yl)-2,5-diphenyl tetrazolium bromide, Sigma-Aldrich, USA, ref. M5655) is prepared with 10 mg of MIT/ml of PBS buffer (phosphate-buffered saline, SIGMA, ref. D 1408). […]

[1] = test system: prostate cancer cells (ATCC-HTB-81); experiment: Activity in vitro on prostate cancer cells; assay type: cell-based, human; conditions: 30 μM, ethanolic form
Method: They were obtained from ATCC (ref. ATCC-HTB-81). The culture medium is the same as that used for the liver cancer lines. The doubling time is 60 h. • Breast cancer cells
(§1) The cancer cells used are from liver (ref. ATCC-HB-8065), prostate (ref. ATCC-HTB-81), breast (ref. ATCC-HTB-19) cancer cells, and from colon cancer cells (ECACC-HT29/219) of human origin, mentioned above.

[2] = test system: CD133+ stem cells (U87-MG cultures); experiment: Immunolabelling of the CD133+ stem cells with the A/B peroxidase system; assay type: cell-based, human; conditions: for CD133+ cells, percentage relative to the controls: 30 μM in ethanolic form
Method: The anti-CD133 (poly, Abnova), anti-GFAP (poly, Sigma), anti-NFL (mono, Santa Cruz) and anti-fibroblast (ERTR7, Santa Cruz) primary antibodies are diluted to 1/100 in the case of the first three antibodies and to 1/50 in the case of the last.
The secondary antibodies corresponding to recognition of the primary antibodies are anti-rabbit antibodies coupled to peroxidase (goat, Sigma), anti-mouse coupled to Dylight 488 (sheep, Sigma), anti-mouse coupled to Dylight 488 (sheep, Sigma) and anti-rat coupled to FITC (rabbit, Sigma). The dilutions are 1/4000, 1/1000, 1/4000 and 1/400 respectively.
The cells are permeabilized for 5 min with 0.1% Triton X-100 (Sigma) in PBS (Fisher Scientific). The nonspecific sites are blocked with 2% BSA (Sigma) in PBS. Incubations are carried out for 1 h at ambient temperature, 48 h at 4° C., 24 h at 4° C. and 1 h at ambient temperature for the anti-CD133, anti-GFAP, anti-NFL and anti-Fibroblast antibodies respectively. Incubation with the secondary antibodies is carried out for 1 h at ambient temperature. The CD133 positive cells are detected by the DAB/H2O2 system (Sigma), and observed with an optical microscope.
The immunolabelling is carried out as described above (section II, A).

[3] = test system: liver cancer cells (ATCC-HB-8065); experiment: Activity in vitro on liver cancer cells; assay type: cell-based, human; conditions: 30 μM, ethanolic form
Method: They were obtained from ATCC (ref. ATCC-HB-8065). The culture medium consists of MEM (Gibco, USA; ref. 51200) and 10% (v/v) FCS. The doubling time is 60 h. • Prostate cancer cells
as §1

[4] = test system: colon cancer cells (ECACC-HT29/219); experiment: Activity in vitro on colon cancer cells; assay type: cell-based, human; conditions: 15 μM, improved liposomal form
Description: They were obtained from the ECACC collection (Ref. ECACC-85061109). The culture conditions are based on the recommendations in the Sigma-Aldrich information leaflet. • Neuroblastoma (line SH-SY5Y)
as §1

| Structure (SMILES) | Live residual cells (C6 cells) [%] | effect on cellular division and respiration [1] | CD133+ cells, percentage relative to the controls ([2]; 4 days of treatment) [%] | CD133+ cells, percentage relative to the controls ([2]; 22 days of treatment) [%] | destruction of the CD133+ stem cells ([2]; ethanolic form, 22 days of treatment) | appearance of CD133+ stem cells after replacing the culture medium with fresh drug-free medium ([2]; medium replaced at 22 days) | effect on cellular division and respiration [3] | toxicity to colon cancer cells [4] |
| --- | --- | --- | --- | --- | --- | --- | --- | --- |
| CC(C)CCCC(C)C1CCC2C3C(OC(=O)OC(C)(C)C)C=C4CC(OC(=O)C5COC(C)(C)O5)CCC4(C)C3CCC12C (centres unmarked) [Molecule 2.a, 7-((tert-butoxycarbonyl)oxy)-10,13-dimethyl-17-(6-methylheptan-2-yl)-2,3,4,7,8,9,10,11,12,13,14,15,16,17-tetradecahydro-1H-cyclopenta[a]phenanthren-3-yl 2,2-dimethyl-1,3-dioxolane-4-carboxylate] | 100 | – | – | – | – | – | – | – |
| CC(=O)OC1C=C2CC(OC(=O)C3COC(C)(C)O3)CCC2(C)C2CCC3(C)C(C(C)CCCC(C)C)CCC3C12 (centres unmarked) [Molecule 2.b, 7-acetoxy-10,13-dimethyl-17-(6-methylheptan-2-yl)-2,3,4,7,8,9,10,11,12,13,14,15,16,17-tetradecahydro-1H-cyclopenta[a]phenanthren-3-yl 2,2-dimethyl-1,3-dioxolane-4-carboxylate] | – | no effect | 100 | 0 | completely destroyed; also recorded: completely destroys the stem cells | does not lead to the appearance of CD133+ stem cells | no effect | not toxic |
